Patent US5545625A, “Preventing conversion of citrulline to argininosuccinate to limit pathological nitric oxide overproduction” (The Medical College of Wisconsin Research Foundation, Inc., priority 1994, dated 1996)

Legend:
[1] = tested on: nitric oxide synthase mRNA; assay: RT-PCR of nitric oxide synthase mRNA in induced rat aortic smooth muscle cells (Example III); format: cell-based; conditions: LPS 30 μg/ml plus interferon-gamma 50 ng/ml with mithramycin, 6 hours; FIG. 3
Procedure: Rat aortic smooth muscle cells were grown as described in Example I and were treated with 30 μg/ml bacterial lipopolysaccharide in combination with 50 ng/ml interferon-gamma. […] RNA was extracted by a modified guanidinium isothiocyanate method (RNAzol; Cinna/Biotecz, Houston, Tex.). Reverse transcriptase-polymerase chain reaction was performed by standard methods using 1 μg of total RNA. This was followed by polymerase chain reaction amplification using synthetic gene-specific primers for rat argininosuccinate synthetase as described in Amaya, Y., et al, J. Biochem. (Tokyo) 103, 177-181 (1988), for argininosuccinate lyase as described in Surh, L. C., et al, Nucleic Acids Research, 16, 9352 (1988) and murine-inducible nitric oxide synthase as described in Lyons, C. R., et al, J. Biol. Chem. 267, 6370-6374 (1992). The primers are specifically described in Hattori, Y., et al, J. Biol. Chem. 269, 9405-9408 (1994). Polymerase chain reaction amplification was performed according to the following schedule: denaturation, annealing, and elongation at 95, 55 and 72° C. for 30 sec, 30 sec and 1 min, respectively, for 30 cycles. […] Polymerase chain reaction products were electrophoresed on a 1.5% agarose gel containing ethidium bromide and visualized by UV-induced fluorescence. […]

[2] = tested on: Sprague-Dawley rats; assay: Air pouch inflammatory model with croton oil (Examples XII, XVIII); format: in vivo, rat; conditions: mithramycin 25 μg/kg intraperitoneally, repeated at 24 hour intervals; end of 5 days; versus rats without drug

COC(C(=O)C(O)C(C)O)C1Cc2cc3cc(OC4CC(OC5CC(O)C(O)C(C)O5)C(O)C(C)O4)c(C)c(O)c3c(O)c2C(=O)C1OC1CC(OC2CC(OC3CC(C)(O)C(O)C(C)O3)C(O)C(C)O2)C(O)C(C)O1 (stereo not drawn) [mithramycin]
gene transcription of nitric oxide synthase (mRNA level) [1]: inhibits gene transcription of argininosuccinate synthetase and nitric oxide synthase | inflammation [2]: less inflammation | nitrite in the fluid exudate of the lesion [2]: significantly less nitrite
